# Laboratory results published in paper PMC4890880 (ACS infectious diseases, 2016).
# System: HepG2-A16-CD81EGFP cells
# Conditions: read-out: Tox_IC50; sheet 2nd round; HepG2 cytotoxicity
row,Compound,IC50 [µM]
1,O=S(=O)(c1cccs1)N1CCCCN2[C@H](CO)[C@H](c3ccc(/C=C/c4ccccc4)cc3)[C@H]2C1 [BRD-K20449903-001-01-6],> 10
2,Cc1cccc(-c2ccc(C3[C@@H]4CN(C(=O)CN(C)C)C[C@H]3N4)cc2)c1 (stereo partly drawn) [BRD-K25161260-019-01-1],> 10

# Same assay, conditions: sheet 2nd round; maximal inhibition in dose response
row,Compound,Tox_max_inhibition (%)
1,O=S(=O)(c1cccs1)N1CCCCN2[C@H](CO)[C@H](c3ccc(/C=C/c4ccccc4)cc3)[C@H]2C1 [BRD-K20449903-001-01-6],9
2,Cc1cccc(-c2ccc(C3[C@@H]4CN(C(=O)CN(C)C)C[C@H]3N4)cc2)c1 (stereo partly drawn) [BRD-K25161260-019-01-1],5.5

# System: Plasmodium berghei (Pb-Luc) exoerythrocytic-stage parasites
# Conditions: first series of dose-response columns; concentration 10; fraction of control
row,Compound,normalized signal at concentration 10
1,O=S(=O)(c1cccs1)N1CCCCN2[C@H](CO)[C@H](c3ccc(/C=C/c4ccccc4)cc3)[C@H]2C1 [BRD-K20449903-001-01-6],0.52
2,Cc1cccc(-c2ccc(C3[C@@H]4CN(C(=O)CN(C)C)C[C@H]3N4)cc2)c1 (stereo partly drawn) [BRD-K25161260-019-01-1],0.87

# Same assay, conditions: first series; concentration 0.000508053; fraction of control
row,Compound,normalized signal at concentration 0.000508053
1,O=S(=O)(c1cccs1)N1CCCCN2[C@H](CO)[C@H](c3ccc(/C=C/c4ccccc4)cc3)[C@H]2C1 [BRD-K20449903-001-01-6],1.07
2,Cc1cccc(-c2ccc(C3[C@@H]4CN(C(=O)CN(C)C)C[C@H]3N4)cc2)c1 (stereo partly drawn) [BRD-K25161260-019-01-1],0.66

# Same assay, conditions: first series; concentration 0.00152416; fraction of control
row,Compound,normalized signal at concentration 0.00152416
1,O=S(=O)(c1cccs1)N1CCCCN2[C@H](CO)[C@H](c3ccc(/C=C/c4ccccc4)cc3)[C@H]2C1 [BRD-K20449903-001-01-6],1.07
2,Cc1cccc(-c2ccc(C3[C@@H]4CN(C(=O)CN(C)C)C[C@H]3N4)cc2)c1 (stereo partly drawn) [BRD-K25161260-019-01-1],0.79

# Same assay, conditions: first series; concentration 0.00457247; fraction of control
row,Compound,normalized signal at concentration 0.00457247
1,O=S(=O)(c1cccs1)N1CCCCN2[C@H](CO)[C@H](c3ccc(/C=C/c4ccccc4)cc3)[C@H]2C1 [BRD-K20449903-001-01-6],0.84
2,Cc1cccc(-c2ccc(C3[C@@H]4CN(C(=O)CN(C)C)C[C@H]3N4)cc2)c1 (stereo partly drawn) [BRD-K25161260-019-01-1],0.92

# Same assay, conditions: first series; concentration 0.0137174; fraction of control
row,Compound,normalized signal at concentration 0.0137174
1,O=S(=O)(c1cccs1)N1CCCCN2[C@H](CO)[C@H](c3ccc(/C=C/c4ccccc4)cc3)[C@H]2C1 [BRD-K20449903-001-01-6],1.09
2,Cc1cccc(-c2ccc(C3[C@@H]4CN(C(=O)CN(C)C)C[C@H]3N4)cc2)c1 (stereo partly drawn) [BRD-K25161260-019-01-1],0.97

# Same assay, conditions: first series; concentration 0.0411523; fraction of control
row,Compound,normalized signal at concentration 0.0411523
1,O=S(=O)(c1cccs1)N1CCCCN2[C@H](CO)[C@H](c3ccc(/C=C/c4ccccc4)cc3)[C@H]2C1 [BRD-K20449903-001-01-6],0.93
2,Cc1cccc(-c2ccc(C3[C@@H]4CN(C(=O)CN(C)C)C[C@H]3N4)cc2)c1 (stereo partly drawn) [BRD-K25161260-019-01-1],0.91

# Same assay, conditions: first series; concentration 0.123457; fraction of control
row,Compound,normalized signal at concentration 0.123457
1,O=S(=O)(c1cccs1)N1CCCCN2[C@H](CO)[C@H](c3ccc(/C=C/c4ccccc4)cc3)[C@H]2C1 [BRD-K20449903-001-01-6],1.01
2,Cc1cccc(-c2ccc(C3[C@@H]4CN(C(=O)CN(C)C)C[C@H]3N4)cc2)c1 (stereo partly drawn) [BRD-K25161260-019-01-1],0.95

# Same assay, conditions: first series; concentration 0.37037; fraction of control
row,Compound,normalized signal at concentration 0.37037
1,O=S(=O)(c1cccs1)N1CCCCN2[C@H](CO)[C@H](c3ccc(/C=C/c4ccccc4)cc3)[C@H]2C1 [BRD-K20449903-001-01-6],1.01
2,Cc1cccc(-c2ccc(C3[C@@H]4CN(C(=O)CN(C)C)C[C@H]3N4)cc2)c1 (stereo partly drawn) [BRD-K25161260-019-01-1],0.78

# Same assay, conditions: first series; concentration 1.11111; fraction of control
row,Compound,normalized signal at concentration 1.11111
1,O=S(=O)(c1cccs1)N1CCCCN2[C@H](CO)[C@H](c3ccc(/C=C/c4ccccc4)cc3)[C@H]2C1 [BRD-K20449903-001-01-6],1.05
2,Cc1cccc(-c2ccc(C3[C@@H]4CN(C(=O)CN(C)C)C[C@H]3N4)cc2)c1 (stereo partly drawn) [BRD-K25161260-019-01-1],0.60

# Same assay, conditions: first series; concentration 3.33333; fraction of control
row,Compound,normalized signal at concentration 3.33333
1,O=S(=O)(c1cccs1)N1CCCCN2[C@H](CO)[C@H](c3ccc(/C=C/c4ccccc4)cc3)[C@H]2C1 [BRD-K20449903-001-01-6],1.18
2,Cc1cccc(-c2ccc(C3[C@@H]4CN(C(=O)CN(C)C)C[C@H]3N4)cc2)c1 (stereo partly drawn) [BRD-K25161260-019-01-1],0.90

# Same assay, conditions: read-out: PbLuc_IC50; sheet 2nd round; Broad compounds, dose response
row,Compound,IC50 [µM]
1,O=S(=O)(c1cccs1)N1CCCCN2[C@H](CO)[C@H](c3ccc(/C=C/c4ccccc4)cc3)[C@H]2C1 [BRD-K20449903-001-01-6],> 10
2,Cc1cccc(-c2ccc(C3[C@@H]4CN(C(=O)CN(C)C)C[C@H]3N4)cc2)c1 (stereo partly drawn) [BRD-K25161260-019-01-1],> 10

# Same assay, conditions: second series of dose-response columns; concentration 10; fraction of control
row,Compound,normalized signal at concentration 10
1,O=S(=O)(c1cccs1)N1CCCCN2[C@H](CO)[C@H](c3ccc(/C=C/c4ccccc4)cc3)[C@H]2C1 [BRD-K20449903-001-01-6],0.70
2,Cc1cccc(-c2ccc(C3[C@@H]4CN(C(=O)CN(C)C)C[C@H]3N4)cc2)c1 (stereo partly drawn) [BRD-K25161260-019-01-1],0.87

# Same assay, conditions: second series; concentration 0.000508053; fraction of control
row,Compound,normalized signal at concentration 0.000508053
1,O=S(=O)(c1cccs1)N1CCCCN2[C@H](CO)[C@H](c3ccc(/C=C/c4ccccc4)cc3)[C@H]2C1 [BRD-K20449903-001-01-6],0.94
2,Cc1cccc(-c2ccc(C3[C@@H]4CN(C(=O)CN(C)C)C[C@H]3N4)cc2)c1 (stereo partly drawn) [BRD-K25161260-019-01-1],0.94

# Same assay, conditions: second series; concentration 0.00152416; fraction of control
row,Compound,normalized signal at concentration 0.00152416
1,O=S(=O)(c1cccs1)N1CCCCN2[C@H](CO)[C@H](c3ccc(/C=C/c4ccccc4)cc3)[C@H]2C1 [BRD-K20449903-001-01-6],1.05
2,Cc1cccc(-c2ccc(C3[C@@H]4CN(C(=O)CN(C)C)C[C@H]3N4)cc2)c1 (stereo partly drawn) [BRD-K25161260-019-01-1],0.94

# Same assay, conditions: second series; concentration 0.00457247; fraction of control
row,Compound,normalized signal at concentration 0.00457247
1,O=S(=O)(c1cccs1)N1CCCCN2[C@H](CO)[C@H](c3ccc(/C=C/c4ccccc4)cc3)[C@H]2C1 [BRD-K20449903-001-01-6],0.96
2,Cc1cccc(-c2ccc(C3[C@@H]4CN(C(=O)CN(C)C)C[C@H]3N4)cc2)c1 (stereo partly drawn) [BRD-K25161260-019-01-1],1.11

# Same assay, conditions: second series; concentration 0.0137174; fraction of control
row,Compound,normalized signal at concentration 0.0137174
1,O=S(=O)(c1cccs1)N1CCCCN2[C@H](CO)[C@H](c3ccc(/C=C/c4ccccc4)cc3)[C@H]2C1 [BRD-K20449903-001-01-6],1.06
2,Cc1cccc(-c2ccc(C3[C@@H]4CN(C(=O)CN(C)C)C[C@H]3N4)cc2)c1 (stereo partly drawn) [BRD-K25161260-019-01-1],1.12

# Same assay, conditions: second series; concentration 0.0411523; fraction of control
row,Compound,normalized signal at concentration 0.0411523
1,O=S(=O)(c1cccs1)N1CCCCN2[C@H](CO)[C@H](c3ccc(/C=C/c4ccccc4)cc3)[C@H]2C1 [BRD-K20449903-001-01-6],1.19
2,Cc1cccc(-c2ccc(C3[C@@H]4CN(C(=O)CN(C)C)C[C@H]3N4)cc2)c1 (stereo partly drawn) [BRD-K25161260-019-01-1],1.00

# Same assay, conditions: second series; concentration 0.123457; fraction of control
row,Compound,normalized signal at concentration 0.123457
1,O=S(=O)(c1cccs1)N1CCCCN2[C@H](CO)[C@H](c3ccc(/C=C/c4ccccc4)cc3)[C@H]2C1 [BRD-K20449903-001-01-6],1.23
2,Cc1cccc(-c2ccc(C3[C@@H]4CN(C(=O)CN(C)C)C[C@H]3N4)cc2)c1 (stereo partly drawn) [BRD-K25161260-019-01-1],1.11

# Same assay, conditions: second series; concentration 0.37037; fraction of control
row,Compound,normalized signal at concentration 0.37037
1,O=S(=O)(c1cccs1)N1CCCCN2[C@H](CO)[C@H](c3ccc(/C=C/c4ccccc4)cc3)[C@H]2C1 [BRD-K20449903-001-01-6],0.91
2,Cc1cccc(-c2ccc(C3[C@@H]4CN(C(=O)CN(C)C)C[C@H]3N4)cc2)c1 (stereo partly drawn) [BRD-K25161260-019-01-1],0.98

# Same assay, conditions: second series; concentration 1.11111; fraction of control
row,Compound,normalized signal at concentration 1.11111
1,O=S(=O)(c1cccs1)N1CCCCN2[C@H](CO)[C@H](c3ccc(/C=C/c4ccccc4)cc3)[C@H]2C1 [BRD-K20449903-001-01-6],1.04
2,Cc1cccc(-c2ccc(C3[C@@H]4CN(C(=O)CN(C)C)C[C@H]3N4)cc2)c1 (stereo partly drawn) [BRD-K25161260-019-01-1],0.83

# Same assay, conditions: second series; concentration 3.33333; fraction of control
row,Compound,normalized signal at concentration 3.33333
1,O=S(=O)(c1cccs1)N1CCCCN2[C@H](CO)[C@H](c3ccc(/C=C/c4ccccc4)cc3)[C@H]2C1 [BRD-K20449903-001-01-6],1.04
2,Cc1cccc(-c2ccc(C3[C@@H]4CN(C(=O)CN(C)C)C[C@H]3N4)cc2)c1 (stereo partly drawn) [BRD-K25161260-019-01-1],0.97

# Same assay, conditions: sheet 2nd round; maximal inhibition in dose response
row,Compound,PbLuc_max_inhibition (%)
1,O=S(=O)(c1cccs1)N1CCCCN2[C@H](CO)[C@H](c3ccc(/C=C/c4ccccc4)cc3)[C@H]2C1 [BRD-K20449903-001-01-6],48
2,Cc1cccc(-c2ccc(C3[C@@H]4CN(C(=O)CN(C)C)C[C@H]3N4)cc2)c1 (stereo partly drawn) [BRD-K25161260-019-01-1],40
